We go through 45 compounds from US7977363B2, “Biphenyl-thiazolo-carboxamides” (Bayer Cropscience AG, priority 2004, dated 2011).

The test system of data set [1] is apple scab fungus Venturia inaequalis. Description: Venturia Test (Apple)/Protective. It is filed as in vivo. The conditions noted are these: 240 h, protective, evaluated 10 days after inoculation, read-out: Efficacy in %. The method, then: (§1) [table] To produce a suitable preparation of active compound, 1 part by weight of active compound is mixed with the stated amounts of solvent and emulsifier, and the concentrate is diluted with water to the desired concentration. In order to test the protective activity, young plants are sprayed with the active compound preparation at the stated application rate. After the spray coating dries, the plants are inoculated with an aqueous conidial suspension of the apple scab fungus Venturia inaequalis and then remain in an incubation cabinet for 1 day at approx. 20° C. and 100% relative humidity. The plants are then placed in the greenhouse at approx. 21° C. and at a relative humidity of approx. 90%. The results are evaluated 10 days after the inoculation. An efficacy of 0% corresponds to that of the control, while an efficacy of 100% means that no infestation is observed.

For another data set, the system named is Botrytis cinerea. As to the kind of experiment: Botrytis Test (Bean)/Protective. The format is in vivo. As to conditions: 48 h, protective, evaluated 2 days after inoculation, read-out: Efficacy in %. The method, then: [table] To produce a suitable preparation of active compound, 1 part by weight of active compound is mixed with the stated amounts of solvent and emulsifier, and the concentrate is diluted with water to the desired concentration. In order to test the protective activity, young plants are sprayed with the active compound preparation at the stated application rate. After the spray coating dries, 2 small pieces of agar that are infested with Botrytis cinerea are placed on each leaf. The inoculated plants are placed in a darkened chamber at 20° C. and 100% relative humidity. The size of the infestation blotches on the leaves is evaluated 2 days after the inoculation. An efficacy of 0% corresponds to that of the control, while an efficacy of 100% means that no infestation is observed.

The test system of another data set is Pyrenophora teres. As to the kind of experiment: Pyrenophora teres Test (Barley)/Protective. The format is in vivo. As to conditions: protective, 500 g/ha, evaluated 7 days after inoculation. As for the experimental part:
[table] To produce a suitable preparation of active compound, 1 part by weight of active compound is mixed with the stated amounts of solvent and emulsifier, and the concentrate is diluted with water to the desired concentration. In order to test the protective activity, young plants are sprayed with the active compound preparation at the stated application rate. After the spray coating dries, the plants are sprayed with a conidial suspension of Pyrenophora teres. The plants remain in an incubation cabinet for 48 hours at 20° C. and 100% relative humidity. The plants are then placed in a greenhouse at a temperature of approx. 20° C. and a relative humidity of 80%. The results are evaluated 7 days after the inoculation. An efficacy of 0% corresponds to that of the control, while an efficacy of 100% means that no infestation is observed.

Another data set deals with Podosphaera leucotricha. As to the kind of experiment: Podosphaera Test (Apple)/Protective. It is filed as in vivo. The conditions noted are these: 240 h, protective, evaluated 10 days after inoculation, read-out: Efficacy in %. The method, then: as §1, with “spore” for “conidial”, “Podosphaera leucotricha.” for “the apple scab fungus Venturia inaequalis and then remain in an incubation cabinet for 1 day at approx. 20° C. and 100% relative humidity.”, “23°” for “21°”, “70%.” for “90%.”

Another data set deals with Alternaria solani. As to the kind of experiment: Alternaria Test (Tomato)/Protective. It is filed as in vivo. The conditions noted are these: protective, 750 g/ha, evaluated 7 days after inoculation. The method, then:
[table] To produce a suitable preparation of active compound, 1 part by weight of active compound is mixed with the stated amounts of solvent and emulsifier, and the concentrate is diluted with water to the desired concentration. In order to test the protective activity, young tomato plants are sprayed with the active compound preparation at the stated application rate. One day after treatment, the plants are inoculated with a spore suspension of Alternaria solani and then remain for 24 hours at 100% relative humidity and 20° C. The plants are then placed into in environment of 96% relative humidity at a temperature of 20° C. The results are evaluated 7 days after the inoculation. An efficacy of 0% corresponds to that of the control, while an efficacy of 100% means that no infestation is observed.

Data set [2] in a line: Log P determination by HPLC on reversed-phase column (EEC Directive 79/831, Annex V.A8). As to conditions: reversed-phase HPLC column (C18). The format is physicochemical. The method, then:
The determination of the Log P values occurred according to EEC Directive 79/831, Annex V.A8 using HPLC (High Performance Liquid Chromatography) on a reversed-phase column (C 18). Temperature: 43° C. Eluents for determination in the acidic range (pH 2.3): 0.1% aqueous phosphoric acid, acetonitrile; linear gradient of 10% acetonitrile to 90% acetonitrile. Calibration took place using unbranched alkane-2-ones (with 3 to 16 carbon atoms) with known Log P values (the Log P values were determined on the basis of the retention times by way of linear interpolation between two consecutive alkanones).

Where [3] appears, read: HPLC, C18 reversed phase, 43° C., acidic range (pH 2.3), read-out: Log P.
[4] abbreviates: pH 2.3, read-out: log P (pH 2.3).

Like-named read-outs stand apart in the source and are kept apart here.

`Cc1nc(C(F)F)c(C(=O)Nc2c(F)cccc2-c2ccc(Cl)c(Cl)c2)s1` [drawing 57]: the pest or weed control at 100 g/ha in data set [1] worked out at 100%.
For the compound `Cc1nc(C(F)F)c(C(=O)Nc2c(F)cccc2-c2ccc(Cl)c(F)c2)s1` [drawing 69], the pest or weed control at 500 g/ha in the data set with Botrytis cinerea worked out at 100%.
In turn, `Cc1nc(C(F)F)c(C(=O)Nc2ccc(F)cc2-c2cccc(C)c2F)s1` [drawing 79] came in with an Efficacy in % in the data set on Pyrenophora teres of 100%.
For the compound `Cc1nc(C(F)(F)F)c(C(=O)Nc2ccc(F)cc2-c2ccc(Cl)c(Cl)c2)s1` [drawing 49], the pest or weed control at 100 g/ha in the data set with Podosphaera leucotricha was 100%.
Take `Cc1nc(C(F)F)c(C(=O)Nc2ccc(F)cc2-c2ccc(Cl)c(F)c2)s1` [drawing 82]: the Efficacy in % in the data set with Alternaria solani turned out to be 98%.
In the case of `Cc1nc(C(F)(F)F)c(C(=O)Nc2ccc(F)cc2-c2ccc(Cl)c(F)c2)s1` [drawing 70], the pest or weed control at 500 g/ha in the data set on Botrytis cinerea came to 100%.
Same read-out and setting: as for `Cc1nc(C(F)F)c(C(=O)Nc2ccc(F)cc2-c2ccc(Cl)c(Cl)c2)s1` [drawing 65], the figure is 100%.
In the case of `Cc1nc(C(F)F)c(C(=O)Nc2ccc(F)cc2-c2ccc(Cl)c(Cl)c2)s1` [drawing 56], in data set [1], the pest or weed control at 100 g/ha was 100%.
For the compound `Cc1nc(C(F)F)c(C(=O)Nc2c(F)cccc2-c2ccc(Cl)c(Cl)c2)s1` [drawing 66], the pest or weed control at 500 g/ha in the data set on Botrytis cinerea was found to be 100%.
Turning to `Cc1nc(C(F)(F)F)c(C(=O)Nc2ccc(F)cc2-c2ccc(Cl)c(F)c2)s1` [drawing 61], the pest or weed control at 100 g/ha in data set [1] came to 100%.
Take `Cc1nc(C(F)(F)F)c(C(=O)Nc2ccc(F)cc2-c2ccc(Cl)c(F)c2)s1` [drawing 76]: the Efficacy in % with Pyrenophora teres came out at 100%.
As to `Cc1nc(C(F)F)c(C(=O)Nc2ccc(F)cc2-c2ccc(Cl)c(F)c2)s1` [Compound 2.17], the chromatographic logP in data set [2] (setting [3]) was 3.36.
Turning to `Cc1nc(C(F)F)c(C(=O)Nc2c(F)cccc2-c2ccc(Cl)c(F)c2)s1` [Compound 2.16], in data set [2] (setting [3]), the chromatographic logP turned out to be 3.16.
For the compound `Cc1nc(C(F)(F)F)c(C(=O)Nc2ccc(F)cc2-c2ccc(Cl)c(F)c2)s1` [Compound 2.18, N-(4′-chloro-3′,5-difluorobiphenyl-2-yl)-2-methyl-4-(trifluoromethyl)-1,3-thiazole-5-carboxamide], the chromatographic logP in data set [2] (setting [4]) was 3.67.
As to `Cc1nc(C(F)F)c(C(=O)Nc2ccc(F)cc2-c2ccc(Cl)c(C)c2)s1` [Compound 2.21], the chromatographic logP in data set [2] (setting [3]) worked out at 3.68.
For `Cc1nc(C(F)(F)F)c(C(=O)Nc2ccc(F)cc2-c2ccc(Cl)c(F)c2)s1` [drawing 81], the Efficacy in % in the data set on Alternaria solani is 100%.
Take `Cc1nc(C(F)(F)F)c(C(=O)Nc2ccc(F)cc2-c2ccc(Cl)c(Cl)c2)s1` [Compound 2.11, N-(3′,4′-dichloro-5-fluorobiphenyl-2-yl)-2-methyl-4-(trifluoromethyl)-1,3-thiazole-5-carboxamide]: the chromatographic logP in data set [2] (setting [3]) was 3.93.
In the case of `Cc1nc(C(F)F)c(C(=O)Nc2c(F)cccc2-c2ccc(Cl)c(Cl)c2)s1` [Compound 2.13], the chromatographic logP in data set [2] (setting [3]) amounted to 3.43.
On to `Cc1nc(C(F)(F)F)c(C(=O)Nc2ccc(F)cc2-c2ccc(Cl)c(F)c2)s1` [drawing 52], for which the pest or weed control at 100 g/ha in the data set on Podosphaera leucotricha turned out to be 100%.
Same read-out and setting: as for `Cc1nc(C(F)F)c(C(=O)Nc2ccc(F)cc2-c2ccc(Cl)c(C)c2)s1` [drawing 54], the figure is 100%.
Turning to `Cc1nc(C(F)(F)F)c(C(=O)Nc2ccc(F)cc2-c2ccc(Cl)c(C)c2)s1` [drawing 71], the pest or weed control at 500 g/ha with Botrytis cinerea was 100%.
In the case of `Cc1nc(C(F)F)c(C(=O)Nc2ccc(F)cc2-c2ccc(Cl)c(C)c2)s1` [drawing 63], the pest or weed control at 100 g/ha in data set [1] came out at 100%.
The compound `Cc1nc(C(F)F)c(C(=O)Nc2ccc(F)cc2-c2ccc(Cl)c(Cl)c2)s1` [drawing 74] yielded an Efficacy in % in the data set with Pyrenophora teres of 100%.
`Cc1nc(C(F)F)c(C(=O)Nc2c(F)cccc2-c2ccc(Cl)c(F)c2)s1` [drawing 60]: in data set [1], the pest or weed control at 100 g/ha worked out at 100%.
Take `Cc1nc(C(F)(F)F)c(C(=O)Nc2c(F)cccc2-c2ccc(Cl)c(Cl)c2)s1` [drawing 59]: in data set [1], the pest or weed control at 100 g/ha came out at 100%.
Same read-out and setting: then `Cc1nc(C(F)(F)F)c(C(=O)Nc2ccc(F)cc2-c2ccc(Cl)c(Cl)c2)s1` [drawing 58], with 100%.
In the case of `Cc1nc(C(F)F)c(C(=O)Nc2c(F)cccc2-c2ccc(Cl)c(Cl)c2)s1` [drawing 48], the pest or weed control at 100 g/ha with Podosphaera leucotricha was determined as 100%.
For the compound `Cc1nc(C(F)F)c(C(=O)Nc2ccc(F)cc2-c2ccc(Cl)c(Cl)c2)s1` [Compound 2.12], the chromatographic logP in data set [2] (setting [3]) was 3.63.
As for `Cc1nc(C(F)F)c(C(=O)Nc2c(F)cccc2-c2ccc(Cl)c(F)c2)s1` [drawing 51], the pest or weed control at 100 g/ha in the data set with Podosphaera leucotricha worked out at 100%.
Still for that read-out and setting: then `Cc1nc(C(F)(F)F)c(C(=O)Nc2c(F)cccc2-c2ccc(Cl)c(Cl)c2)s1` [drawing 50], with 100%; and `Cc1nc(C(F)F)c(C(=O)Nc2ccc(F)cc2-c2cccc(C)c2F)s1` [drawing 55], with 94%.
As for `Nc1ccc(F)cc1-c1ccc(Cl)c(F)c1` [III-1, 4′-chloro-3′,5-difluorobiphenyl-2-amine], the chromatographic logP in data set [2] (setting [4]) worked out at 3.18.
In the case of `Cc1nc(C(F)(F)F)c(C(=O)Nc2c(F)cccc2-c2ccc(Cl)c(Cl)c2)s1` [Compound 2.14], the chromatographic logP in data set [2] (setting [3]) came to 3.68.
`Cc1nc(C(F)(F)F)c(C(=O)Nc2c(F)cccc2-c2ccc(Cl)c(Cl)c2)s1` [drawing 68]: the pest or weed control at 500 g/ha in the data set with Botrytis cinerea is 98%.
Consider `Cc1nc(C(F)F)c(C(=O)Nc2ccc(F)cc2-c2ccc(Cl)c(Cl)c2)s1` [drawing 47], for which the pest or weed control at 100 g/ha with Podosphaera leucotricha was found to be 100%.
In the case of `Cc1nc(C(F)F)c(C(=O)Nc2ccc(F)cc2-c2ccc(Cl)c(C)c2)s1` [drawing 72], the pest or weed control at 500 g/ha in the data set with Botrytis cinerea turned out to be 100%.
Consider `Cc1nc(C(F)F)c(C(=O)Nc2ccc(F)cc2-c2cccc(C)c2F)s1` [drawing 64], for which the pest or weed control at 100 g/ha in data set [1] is 98%.
For `Cc1nc(C(F)F)c(C(=O)Nc2ccc(F)cc2-c2cccc(C)c2F)s1` [drawing 73], the pest or weed control at 500 g/ha in the data set on Botrytis cinerea came out at 98%.
In the case of `Cc1nc(C(F)F)c(C(=O)Nc2ccc(F)cc2-c2ccc(Cl)c(F)c2)s1` [drawing 77], in the data set with Pyrenophora teres, the Efficacy in % worked out at 100%.
In the data set on Pyrenophora teres, `Cc1nc(C(F)F)c(C(=O)Nc2ccc(F)cc2-c2ccc(Cl)c(C)c2)s1` [drawing 78] yielded an Efficacy in % of 100%.
Still for that read-out and setting: as for `Cc1nc(C(F)F)c(C(=O)Nc2c(F)cccc2-c2ccc(Cl)c(F)c2)s1` [drawing 75], the figure is 100%.
Turning to `Cc1nc(C(F)(F)F)c(C(=O)Nc2ccc(F)cc2-c2ccc(Cl)c(C)c2)s1` [drawing 62], the pest or weed control at 100 g/ha in data set [1] came to 100%.
In the case of `Cc1nc(C(F)(F)F)c(C(=O)Nc2ccc(F)cc2-c2ccc(Cl)c(C)c2)s1` [Compound 2.20], the chromatographic logP in data set [2] (setting [3]) is 3.99.
On to `Cc1nc(C(F)(F)F)c(C(=O)Nc2ccc(F)cc2-c2ccc(Cl)c(C)c2)s1` [drawing 53], for which the pest or weed control at 100 g/ha in the data set on Podosphaera leucotricha amounted to 100%.
`Cc1nc(C(F)(F)F)c(C(=O)Nc2ccc(F)cc2-c2ccc(Cl)c(Cl)c2)s1` [drawing 67]: in the data set on Botrytis cinerea, the pest or weed control at 500 g/ha came to 99%.
